Patent US10172835B2, “Anticancer agent composition” (J-Pharma Co., Ltd., priority 2014, dated 2019)

How the values were obtained:
primary T-ALL cells = test: Cell viability of human T-ALL primary samples; format: cell-based; details: primary T-ALL cells from patients
Method: Informed consent was obtained according to institutional guidelines. Heparin-treated blood was obtained from three T-ALL patients and from two healthy donors. Patient lymphoblasts were isolated within 24 hours post collection using Ficoll-Paque PLUS density gradient following vendor recommended procedures (GE Healthcare Life Sciences).
(§1) Two different assays were employed: i) In a 96-well plate format, cells (4.0±0.1×10^4 per well; 100 μL) were incubated with effectors (48 h, 37° C.; n=4 per experiment) and then WST-1 reagent (10 μL; Roche Diagnostics) added to each well of 96-well plates, incubated, and the formazan production was measured at 490 nm; and ii) cells (2.0±0.1×10^4 per well; 100 μL) were incubated with effectors (48 h, 37° C.; n=4 per experiment) and then bromodeoxyuridine reagent (10 μL/well; Roche Diagnostics) was added to each well and incubated (8 h, 37° C.). The cells were then fixed, denatured and incubated with anti-BrdU-conjugated with peroxidase (POD) antibody (100 μL/well). Colorimetric substrate (TMB: tetramethyl-benzidine; 100 μL/well) was added and BrdU incorporation quantified via optical density measurement (450 nm) which corresponds to DNA synthesis and proliferating cells.

caspase 3 [1] = test: Western blot of caspase 3 activation and PARP cleavage, KO99L cells; format: cell-based, murine; details: 10.0 μM
Method: (§2) Cell extracts were prepared using a cell lysis buffer (50 mM HEPES, pH 7.4, 150 mM NaCl, 20 mM EDTA, 100 mM NaF, 10 mM Na3VO4, 0.5% nonyl phenoxypolyethoxylethanol (NP40) supplemented with a cocktail of protease inhibitors. After SDS-PAGE separation and transfer to nitrocellulose immunoblotting was performed using the following antibodies against: Akt (Cell Signaling Technologies, #9272), CHOP (#2895), cleaved caspase 3 (#9664), c-Myc (#9402), eIF2a (#9721), 4EBP1 (#9644), LC3A/B (#12741), PARP (#9542), pJnk (T183/Y185) (#9251), pSer235-236-S6RP (#4856), pSer473-Akt (#9271), pSer65-4EBP1 (#9451) and S6RP (#2217); Bax (Sigma-Aldrich, B8429); PUMA (Abcam, ab54288); Bak (Millipore, 06536); ATF4 (Santa Cruz Biotechnologies, sc200), GADD34 (sc8327), Hsp60 (sc-1722), Hsp90 (sc-13119) and XBP1 (sc-7160); ATF6 (Imgenex, IMG-273).

caspase 3 [2] = test: Western blot of caspase 3 activation and PARP cleavage in primary tPTEN−/− tumor cells (KO#732); format: cell-based, murine; details: primary KO#732 cells; COMPOUND-JP 5.0, 10.0 μM; PI-103 10.0 μM; rapamycin 10.0 nM; 2.0-18.0 h
Method: as §2

[3] = system: KO99L cells (tPTEN−/− tumor cell line); test: WST-1 cell viability assay on KO99L cells; format: cell-based, murine
Method: as §1

Jurkat T-ALL line [4] = test: Cell viability of Jurkat human T-ALL cells; format: cell-based
Method: as §1

[5] = system: normal cord blood mononuclear cells; test: Viability of normal human cord blood mononuclear cells (DAPI, Facs); format: cell-based; details: 5.0 and 10.0 μM, 48 h
Bcl2 family members = test: Western blot of Bcl2 family members, KO99L cells; format: cell-based, murine; details: 10.0 μM, starting at 6.0 h
Method: as §2

[6] = system: KO99L-LUC cells (tPTEN−/− tumor); test: In vivo growth of subcutaneous KO99L-LUC tumors in nude mice (volume, bioluminescence, immunohistochemistry)
Method: All mice in each experimental group were subcutaneous injected with 99KOL-LUC T-lymphoma cells (200 μL; 5.0±0.1×10^6) stably expressing a reporter luciferase gene. After two days post injection, mice were intraperitoneally administered COMPOUND-JP (50 mg/kg/day/5 days a week) which had been prepared by dissolving drug powder and mixing into saline (NaCl 0.9%). Body weights and tumor volumes were measured every five days. Tumor volumes were calculated according to the mathematical formula: V=(L*W^2)/2 (L:Length; W:Width). To conduct the bioluminescence imaging, mice received an intraperitoneal injection (150 μL, 30 mg/mL) of D-luciferin (Caliper Life Science) and were anesthetized via inhaled isoflurane (2.0%). Bioluminescence signals were monitored using the Photon imager (Biospace Lab) equipped with a highly sensitive cooled CCD camera; all images were collected 10 min post D-luciferin injection. Data were analyzed using total photon flux emission (photons/second) focused on the regions of interest (ROI) enveloping the tumor region.
Sections (4 μm) in paraffin blocks of dissected tumors were labeled with a primary rabbit phospho-S6RP antibody (#4858, Cell Signaling Technology). A second, anti-rabbit antibody conjugated with peroxidase (HRP) (SignalStain®, #8114, Cell Signaling Technology) was added to the sections before revelation with diaminobenzidine (DAB) as recommended by the manufacturer. For necrosis evaluation, sections were stained with hematoxylin/eosin/safran (HES). The images were analyzed and necrosis areas quantified using the ImageJ software (NIH).

Jurkat T-ALL line [7] = test: Cell proliferation of Jurkat human T-ALL cells; format: cell-based
Method: as §1

primary tPTEN−/− cells = test: Cell death of primary tPTEN−/− lines, PI staining and Facs; format: cell-based, murine; details: 2.5-20.0 μM, 48 h, five primary tumors
c-myc = test: Western blot of c-myc levels, KO99L cells; format: cell-based, murine; details: COMPOUND-JP 10.0 μM 2.0-24 h; Velcade 8 nM 24 h; KU0063794 10.0 μM; MK-2206 10.0 μM; rapamycin 100 nM
Method: as §2

[8] = system: Unfolded Protein Response components; test: Western blot of ISR/UPR components, KO99L cells; format: cell-based, murine; details: 10.0 μM
Method: as §2

LC3 = test: Western blot of LC3 processing (autophagy), KO99L cells; format: cell-based, murine; details: 10.0 μM
Method: as §2

[9] = system: freshly isolated tPTEN−/− tumor cells; test: WST-1 cell viability of freshly isolated primary tPTEN−/− tumor cells; format: cell-based, murine; details: concentration dependent manner
Method: as §1

Nc1cc(COc2c(Cl)cc(C[C@H](N)C(=O)O)cc2Cl)c2oc(-c3ccccc3)nc2c1 [COMPOUND-JP, O-(5-amino-2-phenylbenzoxazole-7-yl)methyl-3,5-dichloro-L-tyrosine]
cell viability (COMPOUND-JP sensitivity) (primary T-ALL cells): concentration dependent | caspase 3 cleavage (caspase 3 [1]; 48 hr): essentially all cellular caspase 3 was processed | caspase 3 cleavage (caspase 3 [1]; four-to-six hour post addition): caspase 3 cleavage could be observed | PARP cleavage (caspase 3 [1]; 24 h): fully cleaved | caspase 3 processing and PARP cleavage (apoptosis) (caspase 3 [2]): induced caspase 3 processing and PARP cleavage | cell viability ([3]; KO99L cells, 2.5-10.0 μM, 48 h): dose-dependent decrease | reversal of the viability decrease by Essential Amino Acids (EAA) in the medium ([3]; KO99L cells, 2.5-10.0 μM, NEAA no rescue): partially reversed | cytotoxicity at 40 µM ([3]; Mus musculus, KO99-S (parental KO99L), 40 μM, 48 h, read-out: decrease in cell viability): 95 to 100% | IC50 ([3]; Mus musculus, KO99L tPTEN−/− cells, 48 h, read-out: IC50, cell viability (drug concentration to kill half of the cells)): 2400 nM | cell survival (Jurkat T-ALL line [4]): alter cell survival | normal cord blood mononuclear cells (living cells) [5]: did not significantly alter | protein levels of four pro-apoptotic members: Bak, Bax, PUMA and Bim (Bcl2 family members): increased protein levels | decrease of mean tumor volume ([6]; 50 mg/kg/day, day 18, vs vehicle treated group, p<0.05): 45% | decrease of tumor luminescence ([6]; 50 mg/kg/day, p<0.05): 59% | necrotic response within the tumors ([6]; treated mice, untreated 4.6+/−0.5%): 10.5+/−0.5% | pS6RP staining in tumors ([6]; tumors from treated mice, 50 mg/kg/day): dramatically decreased | proliferation (Jurkat T-ALL line [7]): alter | cell death in primary tPTEN−/− cells (primary tPTEN−/− cells): dose dependent | c-myc protein level (c-myc): decreased | GADD34 [8]: expression | full length XBP1 [8]: gradually disappeared | p38 stress pathway ([8]; 2.0 h): strongly activated | ATF4 ([8]; 6.0 h): induction | ATF6 ([8]; 18.0 h): induction | eIF2 phosphorylation ([8]; 24 h): De-phosphorylation | LC3-II accumulation (LC3): stimulated LC3-II accumulation | cell viability in freshly isolated tPTEN−/− tumor cells [9]: influenced cell viability
